# Data reported in the supplement of paper PMC10307832.
# Assays:
# Experiment in all cases: relative viability (nuclei count vs DMSO), 5 days (fraction); higher = more cells survive
# Vandetanib + Pictilisib = compound: COc1cc2/c(=N/c3ccc(Br)cc3F)nc[nH]c2cc1OCC1CCN(C)CC1 [Vandetanib] + CS(=O)(=O)N1CCN(Cc2cc3nc(-c4cccc5[nH]ncc45)nc(N4CCOCC4)c3s2)CC1 [Pictilisib] (partner 1 µM)
# Procedure, shortened: (§1)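 Relative viability is defined as nuclei in treated wells over nuclei in vehicle wells. Duplicate plates were run and medians reported. Lung cancer cell lines in 1536-well plates were dosed by pin tool one day after seeding, with one drug or with a fixed anchor-drug dose plus five library-drug doses (not always all listed) in √10 steps, and nuclei were counted after 5 days.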
# CUDC-101 + Palbociclib = compound: C#Cc1cccc(Nc2ncnc3cc(OC)c(OCCCCCCC(=O)NO)cc23)c1 [CUDC-101] + CC(=O)c1c(C)c2cnc(Nc3ccc(N4CCNCC4)cn3)nc2n(C2CCCC2)c1=O [Palbociclib] (partner 0.5 µM)
# Procedure, shortened: as §1
# Vandetanib + Tozasertib = compound: COc1cc2/c(=N/c3ccc(Br)cc3F)nc[nH]c2cc1OCC1CCN(C)CC1 [Vandetanib] + Cc1cc(Nc2cc(N3CCN(C)CC3)nc(Sc3ccc(NC(=O)C4CC4)cc3)n2)n[nH]1 [Tozasertib] (partner 0.1 µM)
# Procedure, shortened: as §1
# Vandetanib + Foretinib = compound: COc1cc2/c(=N/c3ccc(Br)cc3F)nc[nH]c2cc1OCC1CCN(C)CC1 [Vandetanib] + COc1cc2c(Oc3ccc(NC(=O)C4(C(=O)Nc5ccc(F)cc5)CC4)cc3F)ccnc2cc1OCCCN1CCOCC1 [Foretinib] (partner 0.25 µM)
# Procedure, shortened: as §1
Cell Line,relative viability (Vandetanib + Pictilisib; first compound 0.02 µM),relative viability (Vandetanib + Pictilisib; first compound 0.06325 µM),relative viability (Vandetanib + Pictilisib; first compound 0.2 µM),relative viability (Vandetanib + Pictilisib; first compound 0.6325 µM),relative viability (Vandetanib + Pictilisib; first compound 2 µM),relative viability (CUDC-101 + Palbociclib; first compound 0.01 µM),relative viability (CUDC-101 + Palbociclib; first compound 0.03162 µM),relative viability (CUDC-101 + Palbociclib; first compound 0.1 µM),relative viability (CUDC-101 + Palbociclib; first compound 0.3162 µM),relative viability (CUDC-101 + Palbociclib; first compound 1 µM),relative viability (Vandetanib + Tozasertib; first compound 0.02 µM),relative viability (Vandetanib + Tozasertib; first compound 0.06325 µM),relative viability (Vandetanib + Tozasertib; first compound 0.2 µM),relative viability (Vandetanib + Tozasertib; first compound 0.6325 µM),relative viability (Vandetanib + Tozasertib; first compound 2 µM),relative viability (Vandetanib + Foretinib; first compound 0.02 µM),relative viability (Vandetanib + Foretinib; first compound 0.06325 µM),relative viability (Vandetanib + Foretinib; first compound 0.2 µM),relative viability (Vandetanib + Foretinib; first compound 0.6325 µM),relative viability (Vandetanib + Foretinib; first compound 2 µM)
201T,0.663,0.648,0.652,0.706,0.692,0.332,0.38,0.347,0.344,0.353,0.927,0.992,1.01,0.92,0.938,1.08,0.996,1.06,1.15,1
A549,0.499,0.419,0.614,0.473,0.412,,,,,,,,,,,1.05,0.961,0.992,0.987,0.854
A-427,0.676,0.626,0.762,0.674,0.777,0.562,0.538,0.501,0.496,0.487,0.215,0.248,0.219,0.155,0.223,1.03,1.05,1.1,0.977,1.05
ABC-1,0.794,0.673,0.866,0.664,0.765,0.647,0.682,0.864,0.587,0.454,0.177,0.173,0.189,0.183,0.117,0.971,1.03,0.28,1,0.854
BEN,0.576,0.49,0.585,0.646,0.538,0.432,0.477,0.522,0.513,0.479,0.582,0.464,0.521,0.462,0.452,0.601,0.517,0.499,0.61,0.62
CAL-12T,0.436,0.412,0.398,0.398,0.311,0.81,0.448,0.333,0.412,0.34,0.346,0.314,0.148,0.249,0.278,1.13,1.05,0.217,1.31,0.552
COR-L23,0.709,0.643,0.989,0.813,0.78,0.275,0.332,0.283,0.253,0.128,0.189,0.241,0.218,0.223,0.222,0.968,1.01,0.942,0.923,0.995
COR-L 105,0.408,0.405,0.412,0.344,0.335,0.383,0.404,0.408,0.427,0.294,0.331,0.355,0.223,0.317,0.286,0.91,1.11,0.329,0.533,0.358
Calu-6,0.938,0.9,0.881,0.807,0.907,,,,,,,,,,,0.809,0.86,0.902,0.853,0.856
ChaGo-K-1,0.632,0.713,0.619,0.87,0.28,0.918,0.908,0.94,0.909,0.738,0.2,0.239,0.248,0.212,0.215,0.958,0.962,0.939,0.936,0.905
EBC-1,0.465,0.345,0.404,0.359,0.242,,,,,,,,,,,0.0974,0.0982,0.108,0.0939,0.0987
EKVX,0.404,0.396,0.404,0.363,0.213,0.374,0.335,0.336,0.405,0.323,0.431,0.424,0.398,0.409,0.27,0.821,0.695,0.795,0.794,1.17
EMC-BAC-2,0.556,0.51,0.358,0.484,0.538,0.546,0.514,0.502,0.502,0.375,0.317,0.307,0.151,0.319,0.286,0.996,0.934,0.307,0.965,0.958
EPLC-272H,0.363,0.311,0.121,0.355,0.166,0.318,0.314,0.279,0.282,0.261,0.25,,0.285,0.282,0.306,0.592,,0.708,0.708,0.474
H3255,0.469,0.392,0.386,0.263,0.126,0.335,0.351,0.324,0.292,0.238,0.469,0.727,0.579,0.554,0.345,0.904,0.824,0.858,0.689,0.345
HARA,0.385,0.248,0.337,0.369,0.392,0.278,0.204,0.246,0.224,0.172,0.111,0.118,0.0738,0.466,0.0849,0.889,0.753,0.36,0.89,0.735
HCC-15,0.795,0.678,0.696,0.767,0.796,0.737,0.74,0.793,0.818,0.648,0.555,0.416,0.07,0.35,0.347,1.05,0.96,0.577,1.04,0.973
HCC-44,0.58,0.543,0.556,0.613,0.634,1.02,0.943,0.951,0.986,1.05,0.924,0.851,1.01,1.05,0.949,,,,,
HCC-78,0.192,0.294,0.234,0.231,0.189,0.44,0.483,0.458,0.427,0.374,0.502,0.451,0.41,0.548,0.404,0.546,0.606,0.524,0.57,0.432

Cell Line,relative viability (Vandetanib + Pictilisib; first compound 0.02 µM),relative viability (Vandetanib + Pictilisib; first compound 0.06325 µM),relative viability (Vandetanib + Pictilisib; first compound 0.2 µM),relative viability (Vandetanib + Pictilisib; first compound 0.6325 µM),relative viability (Vandetanib + Pictilisib; first compound 2 µM),relative viability (CUDC-101 + Palbociclib; first compound 0.01 µM),relative viability (CUDC-101 + Palbociclib; first compound 0.03162 µM),relative viability (CUDC-101 + Palbociclib; first compound 0.1 µM),relative viability (CUDC-101 + Palbociclib; first compound 0.3162 µM),relative viability (CUDC-101 + Palbociclib; first compound 1 µM),relative viability (Vandetanib + Tozasertib; first compound 0.02 µM),relative viability (Vandetanib + Tozasertib; first compound 0.06325 µM),relative viability (Vandetanib + Tozasertib; first compound 0.2 µM),relative viability (Vandetanib + Tozasertib; first compound 0.6325 µM),relative viability (Vandetanib + Tozasertib; first compound 2 µM),relative viability (Vandetanib + Foretinib; first compound 0.02 µM),relative viability (Vandetanib + Foretinib; first compound 0.06325 µM),relative viability (Vandetanib + Foretinib; first compound 0.2 µM),relative viability (Vandetanib + Foretinib; first compound 0.6325 µM),relative viability (Vandetanib + Foretinib; first compound 2 µM)
HCC-366,0.146,0.141,0.202,0.112,0.112,0.411,0.442,0.389,0.39,0.296,0.125,0.112,0.0453,0.174,0.0919,1.02,0.941,0.501,0.893,0.907
HCC-827,0.816,1.02,0.864,0.664,0.355,0.35,0.283,0.155,0.169,0.142,0.442,0.419,0.415,0.243,0.135,1.07,1,0.706,0.296,0.169
HOP-62,0.608,0.504,0.669,0.495,0.734,0.448,0.38,0.478,0.421,0.425,0.42,0.379,0.191,0.384,0.368,1.04,1.02,0.562,1.11,1.02
IA-LM,0.349,,0.345,0.405,0.331,,,,,,,,,,,1.32,0.981,1.11,1.33,1.12
LC-2-ad,0.503,0.4,0.167,0.324,0.19,0.501,0.553,0.477,0.482,0.451,0.471,0.462,0.467,0.45,0.357,1,0.854,0.939,0.801,0.656
LCLC-97TM1,0.282,0.2,0.206,0.171,0.188,0.203,0.228,0.252,0.173,0.164,0.219,0.225,0.346,0.24,0.251,1,0.904,0.997,0.942,0.868
LCLC-103H,0.565,0.518,0.563,0.528,0.472,0.47,0.51,0.491,0.45,0.436,0.613,0.443,0.548,0.481,0.555,0.864,0.786,0.679,0.899,0.714
LK-2,0.585,0.652,0.531,0.559,0.478,0.824,0.662,0.574,0.593,0.194,0.18,0.165,0.195,0.182,0.172,1.19,1.16,0.88,1.22,1.08
LOU-NH91,0.528,0.565,0.508,0.524,0.515,0.574,0.445,0.529,0.581,0.515,0.735,0.635,0.61,0.543,0.526,0.972,0.807,0.787,0.713,0.578
NCI-H522,,,,,,0.96,0.795,0.876,0.985,0.741,0.588,0.57,0.593,0.621,0.597,,,,,
NCI-H596,0.395,0.35,0.323,0.398,0.352,,,,,,0.922,0.706,0.688,1.03,0.898,0.918,0.785,0.741,0.838,0.731
NCI-H1299,0.788,0.677,0.906,0.674,0.604,,,,,,,,,,,1.11,1.03,1.12,1.12,1.1
NCI-H1563,0.62,0.707,0.623,0.656,0.657,,,,,,,,,,,0.959,0.96,0.885,0.806,0.866
NCI-H1623,,,,,,,,,,,0.431,0.4,0.388,0.41,0.445,0.913,0.829,0.8,0.827,0.764
NCI-H1648,,,,,,0.243,0.273,0.256,0.27,0.211,0.515,0.492,0.569,0.657,0.318,,,,,
NCI-H1703,0.244,0.217,0.212,0.211,0.231,,,,,,,,,,,0.338,0.346,0.42,0.328,0.339
NCI-H1792,0.273,0.288,0.303,0.318,0.235,0.675,0.649,0.7,0.675,0.647,,,,,,,,,,
NCI-H2342,,,,,,0.526,0.547,0.523,0.505,0.556,0.592,0.552,0.463,0.461,0.493,1.08,1.01,1.14,1.17,0.923
SW 900,,,,,,0.508,0.449,0.514,0.5,0.362,0.688,0.417,0.142,0.634,0.609,0.927,0.779,0.143,1,0.917
